Laboratory results as given in ChEMBL document CHEMBL5150008, “Fragment-Guided Discovery of Pyrazole Carboxylic Acid Inhibitors of the Kelch-like ECH-Associated Protein 1: Nuclear Factor Erythroid 2 Related Factor 2 (KEAP1:NRF2) Protein-Protein Interaction” (J Med Chem, 2021).

Key:
[1] = molecular target: Keap1/Nrf2 (Homo sapiens, UniProt Q14145); experiment: (§1) Inhibition of 5'-TAMRA tagged NRF2 (unknown origin)/human recombinant N-terminal Avi tagged KEAP-1 (321 to 609 residues) expressed in Baculovirus system infected in Sf9 cells protein-protein interaction by fluorescence polarisation assay
[2] = Permeability in artificial phospholipid membrane by AMPA based HPLC/UV analysis; assay type: ADME, cell membranes; details: not told; read-out: permeability
[3] = Lipophilicity, logD of compound at pH 2 to 10.5 by reversed-phase HPLC; assay type: physicochemical
[4] = molecular target: T1, Keap1/Nrf2 (Homo sapiens, UniProt Q16236+Q14145); experiment: as §1
Target sequence in this assay (Q14145 whole entry, looked up, the tested form may be a part): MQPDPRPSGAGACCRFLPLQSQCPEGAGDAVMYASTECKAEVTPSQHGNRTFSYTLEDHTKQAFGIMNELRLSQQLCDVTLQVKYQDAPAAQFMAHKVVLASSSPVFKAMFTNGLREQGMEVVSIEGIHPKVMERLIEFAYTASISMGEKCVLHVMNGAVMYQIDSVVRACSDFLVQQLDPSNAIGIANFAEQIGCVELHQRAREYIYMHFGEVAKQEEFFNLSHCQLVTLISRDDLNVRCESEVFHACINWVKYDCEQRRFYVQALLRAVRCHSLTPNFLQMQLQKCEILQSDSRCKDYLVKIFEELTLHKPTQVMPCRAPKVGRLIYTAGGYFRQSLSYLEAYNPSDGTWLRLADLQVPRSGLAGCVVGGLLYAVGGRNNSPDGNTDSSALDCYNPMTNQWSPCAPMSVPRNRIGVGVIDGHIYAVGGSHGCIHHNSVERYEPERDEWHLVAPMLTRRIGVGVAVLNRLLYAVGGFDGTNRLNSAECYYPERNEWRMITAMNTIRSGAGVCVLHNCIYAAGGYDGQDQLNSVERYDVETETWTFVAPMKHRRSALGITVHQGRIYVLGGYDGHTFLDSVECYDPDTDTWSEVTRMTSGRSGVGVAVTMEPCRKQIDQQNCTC
Target sequence in this assay (Q16236 whole entry, looked up, the tested form may be a part): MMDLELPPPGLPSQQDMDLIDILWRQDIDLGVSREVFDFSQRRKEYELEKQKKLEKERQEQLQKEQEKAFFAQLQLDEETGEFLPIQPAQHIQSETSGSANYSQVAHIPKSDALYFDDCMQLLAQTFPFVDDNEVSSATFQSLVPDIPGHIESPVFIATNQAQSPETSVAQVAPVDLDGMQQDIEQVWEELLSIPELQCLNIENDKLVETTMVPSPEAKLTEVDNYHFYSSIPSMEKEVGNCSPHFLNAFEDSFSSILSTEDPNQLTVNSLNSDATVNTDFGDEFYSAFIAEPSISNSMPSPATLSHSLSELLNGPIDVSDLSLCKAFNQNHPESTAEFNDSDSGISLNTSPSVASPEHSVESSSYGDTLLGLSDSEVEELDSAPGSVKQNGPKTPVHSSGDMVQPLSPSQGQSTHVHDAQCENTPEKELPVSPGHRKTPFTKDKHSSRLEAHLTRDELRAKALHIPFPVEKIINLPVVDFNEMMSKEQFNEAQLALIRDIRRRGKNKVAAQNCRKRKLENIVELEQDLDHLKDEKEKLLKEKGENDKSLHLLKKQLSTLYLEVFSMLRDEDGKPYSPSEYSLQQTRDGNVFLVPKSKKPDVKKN

[5] = molecular target: T1, Keap1/Nrf2; experiment: Inhibition of 5'-TAMRA tagged NRF2 (unknown origin)/human recombinant N-terminal Avi tagged KEAP-1 (321 to 609 residues) expressed in Baculovirus system infected in Sf9 cells protein-protein interaction at 0.1 uM by fluorescence polarisation assay relative to control
Target sequence in this assay (Q14145 whole entry, looked up, the tested form may be a part): as the sequence (Q14145 whole entry, looked up, the tested form may be a part) above
Target sequence in this assay (Q16236 whole entry, looked up, the tested form may be a part): as the sequence (Q16236 whole entry, looked up, the tested form may be a part) above

[6] = molecular target: T1, Keap1/Nrf2; experiment: Inhibition of 5'-TAMRA tagged NRF2 (unknown origin)/human recombinant N-terminal Avi tagged KEAP-1 (321 to 609 residues) expressed in Baculovirus system infected in Sf9 cells protein-protein interaction at 0.015 uM by fluorescence polarisation assay relative to control
Target sequence in this assay (Q14145 whole entry, looked up, the tested form may be a part): as the sequence (Q14145 whole entry, looked up, the tested form may be a part) above
Target sequence in this assay (Q16236 whole entry, looked up, the tested form may be a part): as the sequence (Q16236 whole entry, looked up, the tested form may be a part) above

[7] = molecular target: T1, Keap1/Nrf2; experiment: Inhibition of 5'-TAMRA tagged NRF2 (unknown origin)/human recombinant N-terminal Avi tagged KEAP-1 (321 to 609 residues) expressed in Baculovirus system infected in Sf9 cells protein-protein interaction at 0.03 uM by fluorescence polarisation assay relative to control
[8] = molecular target: T1, Keap1/Nrf2; experiment: Inhibition of 5'-TAMRA tagged NRF2 (unknown origin)/human recombinant N-terminal Avi tagged KEAP-1 (321 to 609 residues) expressed in Baculovirus system infected in Sf9 cells protein-protein interaction at 0.05 uM by fluorescence polarisation assay relative to control
Target sequence in this assay (Q14145 whole entry, looked up, the tested form may be a part): as the sequence (Q14145 whole entry, looked up, the tested form may be a part) above
Target sequence in this assay (Q16236 whole entry, looked up, the tested form may be a part): as the sequence (Q16236 whole entry, looked up, the tested form may be a part) above

Sequence of Keap1/Nrf2 (Homo sapiens, UniProt Q14145) (Q16236 whole entry, the tested form may be a part): as the sequence (Q16236 whole entry, looked up, the tested form may be a part) above
Sequence of Keap1/Nrf2 (Homo sapiens, UniProt Q14145) (Q14145 whole entry, the tested form may be a part): as the sequence (Q14145 whole entry, looked up, the tested form may be a part) above

Row | SMILES | IC50 ([1]; read-out: IC50) [µM] | Papp [2] [×10⁻⁶ cm/s] | chromatographic logD [3] | also measured
1 | CCCC1CCCCN1C(=O)C1CCCC(c2cccc(-n3ncc(C(=O)O)c3C3CC3)c2)C1 (mixture of isomers) | 0.23 | 1.1 | 4.1 | 
2 | CN(C)C(=O)[C@H]1CCC[C@@H](c2cccc(-n3ncc(C(=O)O)c3C3CC3)c2)C1 (racemic) | 0.24 | < 0.3 | 1.7 | IC50 ([1]; read-out: pIC50 (converted)): < 1 µM
3 | CCC[C@@H]1CCCCN1C(=O)c1cccc(-c2cccc(-n3ncc(C(=O)O)c3[C@@H]3C[C@H]3c3cn(C)nn3)c2)c1 |  | 1.7 | 3 | IC50 [4]: 0.56 µM
4 | CN(CC1CC1)C(=O)c1cccc(-c2cccc(-n3ncc(C(=O)O)c3C3CC3)c2)c1F |  | 0.3 | 2.2 | IC50 ([1]; read-out: pIC50 (converted)): < 1 µM; inhibition [5]: 50%
5 | CCCC1CCCCN1C(=O)c1cccc(-c2cccc(-n3ncc(C(=O)O)c3C3CC3c3cccnc3)c2)c1 (mixture of isomers) | 0.221 | 13 | 3.9 | 
6 | O=C(O)c1cnn(-c2cccc([C@@H]3CCC[C@H](C(=O)N4CCCCC4)C3)c2)c1C1CC1 (racemic) | 0.3 | < 0.3 | 2.7 | 
7 | CCC[C@H]1CCCCN1C(=O)c1cccc(-c2cccc(-n3ncc(C(=O)O)c3C3CC3)c2)c1F | 0.06 | 6.3 | 3.5 | 
8 | O=C(O)c1cnn(-c2cccc(-c3cccc(C(=O)N4CCCC5(CCCC5)C4)c3F)c2)c1C1CC1 |  | 1.2 | 3.7 | inhibition [6]: 50%
9 | CC(C)Oc1cccc(-c2cccc(-n3ncc(C(=O)O)c3C(F)(F)F)n2)c1 | 8.5 |  |  | 
10 | O=C(O)c1cnn(-c2cccc(-c3cccc(C(=O)N4CCCCC4)c3F)c2)c1C1CC1 | 0.12 | < 0.3 | 2.3 | IC50 ([1]; read-out: pIC50 (converted)): < 1 µM
11 | CN(C)C(=O)c1cccc(-c2cccc(-n3ncc(C(=O)O)c3C(C)(C)C)n2)c1 | 10 |  |  | 
12 | CCCCC1CCCN1C(=O)C1CCCC(c2cccc(-n3ncc(C(=O)O)c3C3CC3)c2)C1 (mixture of isomers) |  | 2.7 | 4.4 | inhibition [7]: 64%
13 | CCCC1CCCCN1C(=O)c1cccc(-c2cccc(-n3ncc(C(=O)O)c3C3CC3c3cn(C)nn3)c2)c1 (mixture of isomers) |  | 3.7 | 2.9 | inhibition [6]: 84%
14 | CN(C)C(=O)c1cccc(-c2cccc(-n3ncc(C(=O)O)c3C3CC3)c2)c1 | 0.37 | < 0.3 | 1.4 | IC50 ([1]; read-out: pIC50 (converted)): < 1 µM
15 | O=C(O)c1cnn(-c2cccc(-c3cccc(CNS(=O)(=O)c4ccccc4)c3)c2)c1C(F)(F)F | 45 |  |  | 
16 | O=C(O)c1cnn(-c2cccc(-c3cccc(C(=O)N(CC4CC4)CC4CC4)c3F)c2)c1C1CC1 |  | 1.6 | 3.5 | inhibition [7]: 46%
17 | CCCC1CCCCN1C(=O)c1cccc(-c2cccc(-n3ncc(C(=O)O)c3C3CC3c3ccccn3)c2)c1 (mixture of isomers) |  | 4 | 3.1 | inhibition [7]: 42%
18 | CN(C)C(=O)c1cccc(-c2cccc(-n3ncc(C(=O)O)c3C3CC3c3cn(C)nn3)c2)c1 (racemic) | 0.041 | < 0.3 | 0.8 | IC50 ([1]; read-out: pIC50 (converted)): < 1 µM; inhibition [7]: 53%

Row | SMILES | IC50 ([1]; read-out: IC50) [µM] | Papp [2] [×10⁻⁶ cm/s] | chromatographic logD [3] | also measured
19 | CN(C)C(=O)c1cccc(-c2cccc(-n3ncc(C(=O)O)c3C(F)(F)F)c2)c1 | 0.48 |  |  | 
20 | O=C(O)c1cnn(-c2cccc(NS(=O)(=O)c3ccccc3)c2)c1C(F)(F)F | 4.6 |  |  | 
21 | O=C(O)c1cnn(-c2ccccn2)c1C(F)(F)F | > 1000 |  |  | 
22 | CCCC1CCCCN1C(=O)c1cccc(-c2cccc(-n3ncc(C(=O)O)c3C3CC3c3cccnn3)c2)c1 (mixture of isomers) |  | 1.7 | 2.9 | inhibition [6]: 50%
23 | CCC[C@@H]1CCCCN1C(=O)c1cccc(-c2cccc(-n3ncc(C(=O)O)c3[C@H]3C[C@@H]3c3cn(C)nn3)c2)c1 |  | 1.6 | 3 | inhibition [6]: 98%
24 | CN(C)C(=O)c1cccc(-c2cccc(-n3ncc(C(=O)O)c3C(F)(F)F)n2)c1 | 1 |  |  | 
25 | CN(C)C(=O)c1cncc(-c2cccc(-n3ncc(C(=O)O)c3C(F)(F)F)c2)c1 | 3.7 |  |  | 
26 | CC(=O)N1CCC(c2c(C(=O)O)cnn2-c2cccc(-c3cccc(C(=O)N(C)C)c3)c2)CC1 | 3.5 |  |  | 
27 | CN(C)C(=O)c1cccc(-c2cccc(-n3ncc(C(=O)O)c3-c3cccnc3)c2)c1 | 2 |  |  | 
28 | CN(C)C(=O)c1cccc(-c2cccc(-n3ncc(C(=O)O)c3C3CCCC3)c2)c1 | 1 |  |  | 
29 | CN(C)C(=O)c1cccc(-c2cccc(-n3ncc(C(=O)O)c3C3CCCCC3)c2)c1 | 1.8 |  |  | 
30 | CCCC[C@@H]1CCCN1C(=O)[C@H]1CCC[C@@H](c2cccc(-n3ncc(C(=O)O)c3C3CC3)c2)C1 |  | 1.6 | 4.3 | inhibition [6]: 81%
31 | CCC[C@@H]1CCCCN1C(=O)c1cccc(-c2cccc(-n3ncc(C(=O)O)c3C3CC3)c2)c1F |  | 2.7 | 3.5 | inhibition [6]: 52%
32 | CCCC1COCCN1C(=O)c1cccc(-c2cccc(-n3ncc(C(=O)O)c3C3CC3)c2)c1F (stereo not given) |  | 1.1 | 2.5 | inhibition [7]: 60%; inhibition [8]: 72%
33 | CN(C)C(=O)c1cccc(-c2cccc(-n3ncc(C(=O)O)c3C3CC3)c2)c1F | > 10 | < 0.3 | 1.3 | IC50 ([1]; read-out: pIC50 (converted)): < 1 µM
34 | CN(C)C(=O)c1ccnc(-c2cccc(-n3ncc(C(=O)O)c3C(F)(F)F)c2)c1 | 7.5 |  |  | 
35 | O=C(O)c1cnn(-c2ccccc2)c1C(F)(F)F | > 300 |  |  | 
